Series [1] concerns Mus musculus. Put plainly: Anti-inflammatory activity in LPS-induced male C57BL/6 mouse model of acute […] injury assessed as inhibition of CCL2 mRNA expression at 2 to 6 mg/kg, IG preadministered with compound for 7 days followed by LPS administration and measured after 24 hrs by RT-PCR analysis. In kind it is functional, organism-based. The following applies: dose 2-6 mg/kg, time 8.0 day.

The test system of series [2] is Mus musculus. The series can be described thus: Anti-inflammatory activity in LPS-induced male C57BL/6 mouse model of acute […] injury assessed as inhibition of CXCL1 mRNA expression at 2 to 6 mg/kg, IG preadministered with compound for 7 days followed by LPS administration and measured after 24 hrs by RT-PCR analysis. Type of series: functional, organism-based. As to conditions: dose 2-6 mg/kg, time 8.0 day.

Series [3] relates to Mus musculus. The series can be described thus: Anti-inflammatory activity in LPS-induced male C57BL/6 mouse model of acute […] injury assessed as reduction in IL-6 level in BALF at 2 to 6 mg/kg, IG preadministered with compound for 7 days followed by LPS administration and measured after 24 hrs by ELISA. As to conditions: dose 2-6 mg/kg, time 8.0 day. Type of series: functional, organism-based.

The nature of series [4]: Metabolic stability in human liver microsomes assessed as half-life preincubated for 10 mins followed by NADPH addition and measured upto 60 mins by LC-MS/MS analysis. Type of series: ADME, Microsome. As to conditions: time < 70 min.
For series [5], the system named is Mus musculus. Put plainly: Anti-inflammatory activity in LPS-induced male C57BL/6 mouse model of acute […] injury assessed as inhibition of CXCL10 mRNA expression at 2 to 6 mg/kg, IG preadministered with compound for 7 days followed by LPS administration and measured after 24 hrs by RT-PCR analysis. In kind it is functional, organism-based. The following applies: dose 2-6 mg/kg, time 8.0 day.

The target in another series is Cytochrome P450 3A4 (Homo sapiens, UniProt P08684). Put plainly: Inhibition of CYP3A4 in human liver microsomes using midazolam as substrate preincubated for 10 mins followed by NADPH addition and measured after 10 mins by LC-MS/MS analysis. In kind it is ADME, Microsome. On the technique in general: Liver microsomes are a subcellular fraction often used to study metabolism.

Active and inactive are the calls of the source.

Sequence of Cytochrome P450 3A4 (P08684 whole entry): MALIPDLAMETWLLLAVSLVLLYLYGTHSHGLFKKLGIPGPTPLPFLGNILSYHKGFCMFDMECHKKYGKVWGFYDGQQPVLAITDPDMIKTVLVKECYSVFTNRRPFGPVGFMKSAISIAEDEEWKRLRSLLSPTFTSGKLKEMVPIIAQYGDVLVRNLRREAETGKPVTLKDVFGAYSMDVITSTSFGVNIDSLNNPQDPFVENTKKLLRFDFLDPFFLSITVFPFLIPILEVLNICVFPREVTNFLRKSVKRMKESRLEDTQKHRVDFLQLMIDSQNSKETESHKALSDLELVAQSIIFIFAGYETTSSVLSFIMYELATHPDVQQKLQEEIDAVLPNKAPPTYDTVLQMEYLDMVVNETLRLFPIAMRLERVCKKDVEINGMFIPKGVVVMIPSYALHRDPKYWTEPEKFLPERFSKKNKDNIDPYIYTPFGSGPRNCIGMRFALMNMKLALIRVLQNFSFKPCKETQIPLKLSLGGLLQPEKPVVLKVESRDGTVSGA

Take `O=C(O)CCC(=O)N1N=C(c2ccc[nH]2)CC1c1cnc2ccccc2c1` (stereo unspecified): the result in the series on Mus musculus [1], with Mus musculus [2], in the series with Mus musculus [3] and in the series on Mus musculus [5] was Active. Also, the half-life (commonly the time needed for the level to fall by half in the phase considered) in series [4] turned out to be 3.55 h. Also, the IC50 (commonly the concentration at which inhibition is half-maximal) at Cytochrome P450 3A4 was more than 50 µM.

Source of the values: ChEMBL document CHEMBL6127087 (Eur J Med Chem, 2024).
